Laboratory results from patent publication US20210017607A1, “Methods of Predicting Responsiveness to Cancer Therapies” (The University of Chicago, priority 2019, published 2021).

Key:
[1] = system: PARP; experiment: In vitro target inhibition by western blotting (PARylation); type: cell-based, mouse
[2] = system: B6-Myc (STING^hi) cancer cells; experiment: IFNβ1 ELISA of supernatants after DMXAA treatment; type: cell-based, mouse; conditions: 36 hours
Description: (§1) FIGS. 15A-15E. Differential STING pathway activation within B6-Myc (STING^hi) cell lines and BMDMs relative to Myc-CAP (STING^lo) cells. (15A, 15B) The indicated cancer cell lines and BMDMs were treated with DMXAA (mouse STING agonist) for 1 and 24 hours, respectively, and protein extracts were interrogated for cGAS/STING pathway activation with the indicated antibodies by Western blotting. Supernatants were collected from for IFNβ1 ELISA following 36 hours of treatment with DMXAA (15C, 15D). (15E) Syngeneic Myc-CAP (STING^lo) tumors were processed into single cell suspensions and used for phycoerythrin-based sorting of CD45+ cellular fractions. Equal numbers of cells from these fractions were stimulated with DMXAA. Supernatants were collected at 36 hrs for detection of IFNB1 by ELISA; n=3 independent experiments; Significance/p-values were calculated by one-way Anova (for 15C & 15E) or paired t-test (for 15D); TAM=tumor associated macrophage; s.e.=short exposure; l.e.=long exposure.
(§2) Cancer Cell Lines. Transgenic c-myc” prostate tumor derived cell line, Myc-CAP) (STING^lo) was obtained from ATCC and passaged in 1× DMEM (without phenol red) containing 10% fetal bovine serum, 1% penicillin-streptomycin and 2% L-glutamine. The corresponding c-myc^hi line derived from a C57BL6 generated background were grown for in vitro studies, using same culture conditions as for Myc-CAP. […]

[3] = system: Myc-CAP (STING^lo) cancer cells; experiment: IFNβ1 ELISA of supernatants after DMXAA treatment; type: cell-based, mouse; conditions: 36 hours
Description: as §1, §2

[4] = system: prostate-specific PTEN^−/−p53^−/− GEMM tumors; experiment: Ex vivo GEMM tumor suspensions, IFNβ1 ELISA; type: cell-based, mouse; conditions: DMXAA 50 μg/mL, 36 hours
Description: FIG. 39. […] Tumors from prostate-specific PTEN^−/−p53^−/− GEMM tumors were processed into single cell suspensions and treated with indicated drugs (DMXAA at 50 μg/mL, Buparlisib at 1000 nM, Rucaparib at 500 nM). At 36 hours supernatants were collected for ELISA based detection of IFNβ1; n=1 independent experiment.
Ex vivo Assays. Subcutaneous tumors were isolated by gentle mechanical dissociation in the presence of 1×RPMI (supplemented with 10% fetal bovine serum, 1% penicillin-streptomycin and 2% L-glutamine). 1×ACK was used for RBC lysis. Single cell suspensions were washed twice with media, by centrifuging at 500×g for 5 min at 4° C. and quantified using 0.1% […] solution. Cells were seeded at a concentration 0.2-0.5 million cells/mL and treated with indicated drugs singly or in combination for 36 hours. DMXAA (positive control) was used at indicated concentration. Supernatants from treated BMDMs were collected at the end of 36 hours and processed as per ELISA protocol for detection of cytokines/chemokines.

[5] = system: Myc-CAP tumors with Intermediate tumor cell intrinsic levels of STING; experiment: Survival of mice bearing STING-overexpressing Myc-CAP tumors; type: in vivo, mouse; conditions: DMXAA single intra-tumoral dose
Description: FIG. 52. STING agonist treatment is protective to mice bearing Myc-CAP tumors with Intermediate (not high) tumor cell intrinsic levels of STING. Syngeneic mice bearing Myc-CAP wild-type (WT) and STING overexpressed (STING OE; clone 34) or STING intermediate (STING OE; clone 35) tumors (200 mm^3) were treated with DMXAA ([…] intra-tumoral dose). Tumors were monitored until cut-off tumor volume of 2500 mm^3, and Kaplan Meier curves were plotted. n=3 mice per cohort.

Row | Compound | concentration that achieved complete target inhibition in vitro ([1]; B6-Myc cells (FIG. 17B)) | concentration that completely inhibits PARylation ([1]; B6-Myc in vitro) | complete target inhibition concentration ([1]; Myc-CAP cells (FIG. 29B)) | fold induction in IFN-β levels [2] | induction in IFN-β levels [3] | STING activation (IFNβ1 ELISA) [4] | survival (Kaplan Meier) [5]
1 | CNCc1ccc(-c2[nH]c3cc(F)cc4c3c2CCNC4=O)cc1 [rucaparib] | 500 nM | 500 nm | 500 nM | – | – | – | –
2 | Cc1ccc2c(=O)c3cccc(CC(=O)O)c3oc2c1C [DMXAA, 5,6-Dimethylxanthenone-4-acetic Acid] | – | – | – | 48.1 fold | not observed | induces STING activation | protective
